Experimental data published in the supplement of paper PMC13386468.
pIC50: −log10 of the molar value.

What was measured:
Assay in all cases: IC50 for competition of protein binding to Kinobeads
Details in all cases: assay detail: Kinobeads competition in P. falciparum blood-stage lysate
UniProt C0H517 = molecular target: UniProt C0H517
UniProt C0H5J9 = molecular target: UniProt C0H5J9
UniProt C6KSV0 = molecular target: UniProt C6KSV0
UniProt O77306 = molecular target: UniProt O77306
UniProt O77330 = molecular target: UniProt O77330
UniProt O97284 = molecular target: UniProt O97284
UniProt Q7KQK6 = molecular target: UniProt Q7KQK6
UniProt Q8I1Q5 = molecular target: UniProt Q8I1Q5
UniProt Q8I1R6 = molecular target: UniProt Q8I1R6
UniProt Q8I259 = molecular target: UniProt Q8I259
UniProt Q8I2H3 = molecular target: UniProt Q8I2H3
UniProt Q8I2P8 = molecular target: UniProt Q8I2P8
UniProt Q8I2Q0 = molecular target: UniProt Q8I2Q0
UniProt Q8I388 = molecular target: UniProt Q8I388
UniProt Q8I3Y9 = molecular target: UniProt Q8I3Y9
UniProt Q8I415 = molecular target: UniProt Q8I415
UniProt Q8I442 = molecular target: UniProt Q8I442
UniProt Q8I479 = molecular target: UniProt Q8I479
UniProt Q8I4X0 = molecular target: UniProt Q8I4X0
UniProt Q8I501 = molecular target: UniProt Q8I501
UniProt Q8I5B2 = molecular target: UniProt Q8I5B2
UniProt Q8I5K4 = molecular target: UniProt Q8I5K4
UniProt Q8I719 = molecular target: UniProt Q8I719
UniProt Q8IAR6 = molecular target: UniProt Q8IAR6
UniProt Q8IB31 = molecular target: UniProt Q8IB31
UniProt Q8IBI0 = molecular target: UniProt Q8IBI0
UniProt Q8IBJ1 = molecular target: UniProt Q8IBJ1
UniProt Q8IBL5 = molecular target: UniProt Q8IBL5
UniProt Q8IBT7 = molecular target: UniProt Q8IBT7
UniProt Q8ID49 = molecular target: UniProt Q8ID49
UniProt Q8IDN4 = molecular target: UniProt Q8IDN4
UniProt Q8IDQ9 = molecular target: UniProt Q8IDQ9
UniProt Q8IDR9 = molecular target: UniProt Q8IDR9
UniProt Q8IDZ6 = molecular target: UniProt Q8IDZ6
UniProt Q8IE76 = molecular target: UniProt Q8IE76
UniProt Q8IFN9 = molecular target: UniProt Q8IFN9
UniProt Q8IHP1 = molecular target: UniProt Q8IHP1
UniProt Q8II22 = molecular target: UniProt Q8II22
UniProt Q8II62 = molecular target: UniProt Q8II62
UniProt Q8IIK4 = molecular target: UniProt Q8IIK4
UniProt Q8IIV1 = molecular target: UniProt Q8IIV1
UniProt Q8IJD4 = molecular target: UniProt Q8IJD4
UniProt Q8IJE1 = molecular target: UniProt Q8IJE1
UniProt Q8IJZ3 = molecular target: UniProt Q8IJZ3
UniProt Q8IKA0 = molecular target: UniProt Q8IKA0
UniProt Q8IKH8 = molecular target: UniProt Q8IKH8
UniProt Q8IL86 = molecular target: UniProt Q8IL86
UniProt Q8ILE8 = molecular target: UniProt Q8ILE8
UniProt Q8ILW8 = molecular target: UniProt Q8ILW8
UniProt Q8IM32 = molecular target: UniProt Q8IM32
UniProt Q9TY95 = molecular target: UniProt Q9TY95
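Also: native unpurified kinases from lysate captured on beads bearing immobilized kinase inhibitors, with bead-bound kinases quantified by mass spectrometry across compound doses.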

Chain of UniProt Q8I4X0 (Q8I4X0 whole entry): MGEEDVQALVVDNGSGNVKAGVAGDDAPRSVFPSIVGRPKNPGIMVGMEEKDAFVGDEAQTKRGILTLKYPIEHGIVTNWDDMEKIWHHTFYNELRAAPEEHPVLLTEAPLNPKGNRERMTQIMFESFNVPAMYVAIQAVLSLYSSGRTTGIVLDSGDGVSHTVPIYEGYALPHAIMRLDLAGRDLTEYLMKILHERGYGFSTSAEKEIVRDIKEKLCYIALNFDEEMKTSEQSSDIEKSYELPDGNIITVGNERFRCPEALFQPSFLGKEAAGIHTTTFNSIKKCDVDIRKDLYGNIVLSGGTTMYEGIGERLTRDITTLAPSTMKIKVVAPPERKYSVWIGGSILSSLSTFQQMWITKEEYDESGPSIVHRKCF
Chain of UniProt Q9TY95 (Q9TY95 whole entry): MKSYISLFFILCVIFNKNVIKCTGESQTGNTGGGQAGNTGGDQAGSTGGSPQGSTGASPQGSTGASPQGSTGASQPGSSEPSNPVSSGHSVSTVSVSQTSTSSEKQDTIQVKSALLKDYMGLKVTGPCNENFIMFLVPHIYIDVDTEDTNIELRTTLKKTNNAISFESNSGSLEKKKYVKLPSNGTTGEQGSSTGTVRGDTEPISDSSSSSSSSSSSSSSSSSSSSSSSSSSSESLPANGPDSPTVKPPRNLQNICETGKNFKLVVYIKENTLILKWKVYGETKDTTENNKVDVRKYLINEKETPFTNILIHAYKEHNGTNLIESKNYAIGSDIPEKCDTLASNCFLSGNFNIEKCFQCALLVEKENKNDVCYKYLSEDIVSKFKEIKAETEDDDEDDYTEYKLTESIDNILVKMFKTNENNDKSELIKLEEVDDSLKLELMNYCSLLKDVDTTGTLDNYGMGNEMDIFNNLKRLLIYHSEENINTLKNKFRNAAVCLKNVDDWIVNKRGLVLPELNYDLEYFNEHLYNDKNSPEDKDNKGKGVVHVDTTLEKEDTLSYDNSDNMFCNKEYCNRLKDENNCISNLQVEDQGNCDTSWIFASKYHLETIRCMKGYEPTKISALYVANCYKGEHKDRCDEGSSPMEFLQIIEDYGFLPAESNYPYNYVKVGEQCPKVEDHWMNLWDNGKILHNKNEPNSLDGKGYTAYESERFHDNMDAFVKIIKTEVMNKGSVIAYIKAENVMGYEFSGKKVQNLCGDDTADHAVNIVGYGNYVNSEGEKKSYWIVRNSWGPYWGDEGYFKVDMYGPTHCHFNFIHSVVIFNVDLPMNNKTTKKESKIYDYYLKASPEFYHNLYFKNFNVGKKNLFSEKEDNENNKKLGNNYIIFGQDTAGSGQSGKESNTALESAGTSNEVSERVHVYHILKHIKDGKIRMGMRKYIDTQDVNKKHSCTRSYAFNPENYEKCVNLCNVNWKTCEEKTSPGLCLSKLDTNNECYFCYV
Chain of UniProt Q8IDQ9 (Q8IDQ9 whole entry): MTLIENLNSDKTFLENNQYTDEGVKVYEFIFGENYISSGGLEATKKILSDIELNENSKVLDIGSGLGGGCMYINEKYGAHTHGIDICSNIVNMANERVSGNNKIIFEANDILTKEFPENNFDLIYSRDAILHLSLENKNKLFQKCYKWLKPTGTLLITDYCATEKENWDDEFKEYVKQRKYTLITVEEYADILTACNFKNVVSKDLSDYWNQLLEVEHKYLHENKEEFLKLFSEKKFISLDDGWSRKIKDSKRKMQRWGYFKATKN
Chain of UniProt Q8I719 (Q8I719 whole entry, looked up): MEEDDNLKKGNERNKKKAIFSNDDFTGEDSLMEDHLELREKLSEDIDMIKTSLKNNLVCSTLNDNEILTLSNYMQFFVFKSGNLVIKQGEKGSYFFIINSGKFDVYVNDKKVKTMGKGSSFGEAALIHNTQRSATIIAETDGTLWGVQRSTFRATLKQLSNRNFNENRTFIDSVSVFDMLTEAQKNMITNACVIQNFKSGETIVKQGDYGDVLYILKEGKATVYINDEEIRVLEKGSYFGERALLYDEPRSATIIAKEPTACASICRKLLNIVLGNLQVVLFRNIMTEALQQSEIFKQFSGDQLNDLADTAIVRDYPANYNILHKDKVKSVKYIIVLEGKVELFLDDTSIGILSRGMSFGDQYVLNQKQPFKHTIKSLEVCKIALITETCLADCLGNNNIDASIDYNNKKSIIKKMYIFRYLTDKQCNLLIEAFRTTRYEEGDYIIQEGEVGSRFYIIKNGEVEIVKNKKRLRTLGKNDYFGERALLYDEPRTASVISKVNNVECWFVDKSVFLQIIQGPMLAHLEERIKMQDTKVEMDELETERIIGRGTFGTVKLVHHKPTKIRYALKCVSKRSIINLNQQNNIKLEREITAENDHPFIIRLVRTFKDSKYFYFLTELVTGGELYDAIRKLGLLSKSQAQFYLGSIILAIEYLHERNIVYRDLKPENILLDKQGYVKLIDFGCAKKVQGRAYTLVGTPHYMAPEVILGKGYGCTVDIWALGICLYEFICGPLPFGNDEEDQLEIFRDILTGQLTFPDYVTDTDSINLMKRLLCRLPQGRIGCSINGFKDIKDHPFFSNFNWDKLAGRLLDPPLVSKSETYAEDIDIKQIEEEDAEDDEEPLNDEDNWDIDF
Chain of UniProt Q8IJD4 (Q8IJD4 whole entry): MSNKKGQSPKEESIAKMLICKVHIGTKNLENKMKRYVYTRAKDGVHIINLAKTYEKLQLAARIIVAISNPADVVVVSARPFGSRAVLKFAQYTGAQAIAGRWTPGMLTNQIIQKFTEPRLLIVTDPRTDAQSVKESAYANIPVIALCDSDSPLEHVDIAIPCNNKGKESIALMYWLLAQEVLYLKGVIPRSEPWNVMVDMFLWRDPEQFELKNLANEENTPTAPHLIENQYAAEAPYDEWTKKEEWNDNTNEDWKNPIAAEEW
Chain of UniProt Q8IDN4 (Q8IDN4 whole entry): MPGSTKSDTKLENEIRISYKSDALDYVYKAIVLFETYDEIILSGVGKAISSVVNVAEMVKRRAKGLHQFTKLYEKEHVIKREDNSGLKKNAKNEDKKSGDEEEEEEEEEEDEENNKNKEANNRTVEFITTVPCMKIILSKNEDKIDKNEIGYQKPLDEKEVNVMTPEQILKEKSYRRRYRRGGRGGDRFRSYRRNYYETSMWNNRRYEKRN
Chain of UniProt Q8IIK4 (Q8IIK4 whole entry): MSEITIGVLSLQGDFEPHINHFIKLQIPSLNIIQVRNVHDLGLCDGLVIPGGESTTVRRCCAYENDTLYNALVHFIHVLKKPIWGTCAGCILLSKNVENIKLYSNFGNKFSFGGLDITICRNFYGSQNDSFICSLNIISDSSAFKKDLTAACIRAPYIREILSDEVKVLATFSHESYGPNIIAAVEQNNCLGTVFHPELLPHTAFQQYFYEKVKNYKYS

O=c1[nH]c2ccc(Cl)cc2c(NC2CN3CCC2CC3)c1-c1nc2ccccc2[nH]1 (stereo unspecified) [CHIR-124] showed a pIC50 (UniProt C0H517) of under 4.70, a pIC50 (UniProt C0H5J9) of under 4.70 and a pIC50 (UniProt C6KSV0) of under 4.70. It also gave a pIC50 (UniProt O77306) of under 4.70, a pIC50 (UniProt O77330) of under 4.70 and a pIC50 (UniProt O97284) of under 4.70. It also gave a pIC50 (UniProt Q7KQK6) of under 4.70, a pIC50 (UniProt Q8I1Q5) of under 4.70 and a pIC50 (UniProt Q8I1R6) of under 4.70. The pIC50 (UniProt Q8I259) was under 4.70, the pIC50 (UniProt Q8I2H3) was under 4.70 and the pIC50 (UniProt Q8I2P8) was under 4.70. It also gave a pIC50 (UniProt Q8I2Q0) of under 4.70, a pIC50 (UniProt Q8I388) of under 4.70 and a pIC50 (UniProt Q8I3Y9) of under 4.70. For the same compound, the pIC50 (UniProt Q8I415) was under 4.70, the pIC50 (UniProt Q8I442) was 5.04 and the pIC50 (UniProt Q8I479) was under 4.70. For the same compound, the pIC50 (UniProt Q8I4X0) was under 4.70, the pIC50 (UniProt Q8I501) was under 4.70 and the pIC50 (UniProt Q8I5B2) was under 4.70. For the same compound, the pIC50 (UniProt Q8I5K4) was under 4.70, the pIC50 (UniProt Q8I719) was under 4.70 and the pIC50 (UniProt Q8IAR6) was under 4.70. The pIC50 (UniProt Q8IB31) was under 4.70, the pIC50 (UniProt Q8IBI0) was under 4.70 and the pIC50 (UniProt Q8IBJ1) was under 4.70. For the same compound, the pIC50 (UniProt Q8IBL5) was under 4.70, the pIC50 (UniProt Q8IBT7) was under 4.70 and the pIC50 (UniProt Q8ID49) was under 4.70. For the same compound, the pIC50 (UniProt Q8IDN4) was under 4.70, the pIC50 (UniProt Q8IDQ9) was under 4.70 and the pIC50 (UniProt Q8IDR9) was under 4.70. The pIC50 (UniProt Q8IDZ6) was under 4.70, the pIC50 (UniProt Q8IE76) was under 4.70 and the pIC50 (UniProt Q8IFN9) was under 4.70. For the same compound, the pIC50 (UniProt Q8IHP1) was under 4.70, the pIC50 (UniProt Q8II22) was under 4.70 and the pIC50 (UniProt Q8II62) was under 4.70. For the same compound, the pIC50 (UniProt Q8IIK4) was under 4.70, the pIC50 (UniProt Q8IIV1) was under 4.70 and the pIC50 (UniProt Q8IJD4) was under 4.70. For the same compound, the pIC50 (UniProt Q8IJE1) was under 4.70, the pIC50 (UniProt Q8IJZ3) was under 4.70 and the pIC50 (UniProt Q8IKA0) was under 4.70. It also gave a pIC50 (UniProt Q8IKH8) of under 4.70, a pIC50 (UniProt Q8IL86) of under 4.70 and a pIC50 (UniProt Q8ILE8) of under 4.70. For the same compound, the pIC50 (UniProt Q8ILW8) was under 4.70, the pIC50 (UniProt Q8IM32) was under 4.70 and the pIC50 (UniProt Q9TY95) was under 4.70.
